Settings: Liquid, Capillary tube (Ostwald / Ubbelohde) method

FC(F)CC(F)(F)F [1,1,1,3,3-pentafluoropropane]
viscosity [mPa·s]
Settings | 1000 kPa | 2000 kPa | 5000 kPa | 10000 kPa | 15000 kPa | 20000 kPa | 25000 kPa | 30000 kPa | 35000 kPa | 40000 kPa
263.15 K | 0.679 | – | 0.7113 | 0.7526 | 0.7951 | 0.8369 | 0.8778 | 0.9236 | 0.9686 | 1.015
273.14 K | 0.5811 | – | 0.6083 | 0.6456 | 0.6801 | 0.717 | 0.7534 | 0.7902 | 0.8293 | 0.8685
283.14 K | 0.4999 | – | 0.5252 | 0.5564 | 0.5887 | 0.6204 | 0.6519 | 0.6847 | 0.7184 | 0.7497
293.14 K | 0.4344 | – | 0.4571 | 0.4859 | 0.5143 | 0.5433 | 0.5704 | 0.5998 | 0.6291 | 0.6589
303.14 K | 0.3799 | – | 0.4011 | 0.4282 | 0.4534 | 0.4796 | 0.5048 | 0.5306 | 0.5573 | 0.5829
313.14 K | 0.3343 | – | 0.3538 | 0.379 | 0.4035 | 0.427 | 0.4502 | 0.4745 | 0.4975 | 0.5211
323.13 K | 0.2952 | – | 0.3139 | 0.3372 | 0.3595 | 0.3816 | 0.4029 | 0.425 | 0.4464 | 0.4694
333.13 K | 0.2601 | – | 0.2788 | 0.3009 | 0.3232 | 0.3433 | 0.3637 | 0.3837 | 0.4048 | 0.4241
343.13 K | 0.2301 | – | 0.2484 | 0.2698 | 0.29 | 0.31 | 0.3304 | 0.3488 | 0.3686 | 0.3872
353.13 K | 0.2053 | – | 0.2226 | 0.2428 | 0.2627 | 0.2819 | 0.2999 | 0.3186 | 0.3361 | 0.3537
363.14 K | – | 0.1838 | 0.1972 | 0.219 | 0.2389 | 0.2561 | 0.2746 | 0.2918 | 0.3084 | 0.325
373.14 K | – | 0.1612 | 0.1758 | 0.1977 | 0.2165 | 0.2346 | 0.2518 | 0.2679 | 0.2839 | –

Cc1ccccc1 [toluene]
viscosity [mPa·s]
Settings | 248.16 K | 273.15 K | 298.14 K | 323.13 K | 348.13 K
1000 kPa | 1.19 | 0.7764 | 0.5581 | 0.4252 | 0.3356
10000 kPa | 1.285 | 0.8352 | 0.6005 | 0.4563 | 0.3616
20000 kPa | 1.397 | 0.9052 | 0.644 | 0.4908 | 0.3907
30000 kPa | 1.521 | 0.9742 | 0.6909 | 0.5267 | 0.4198
40000 kPa | – | 1.045 | 0.7419 | 0.5662 | 0.4497

FC(F)(F)CC(F)(F)F [1,1,1,3,3,3-hexafluoropropane]
viscosity [mPa·s]
Settings | 1000 kPa | 2000 kPa | 5000 kPa | 10000 kPa | 15000 kPa | 20000 kPa | 25000 kPa | 30000 kPa | 35000 kPa | 40000 kPa
253.15 K | 0.5347 | – | 0.5621 | 0.5982 | 0.6363 | 0.671 | 0.7092 | 0.751 | 0.7898 | 0.8347
263.16 K | 0.4612 | – | 0.4857 | 0.5184 | 0.5511 | 0.583 | 0.6154 | 0.6508 | 0.6835 | 0.7189
273.14 K | 0.3999 | – | 0.4237 | 0.452 | 0.4821 | 0.5127 | 0.5412 | 0.5699 | 0.6012 | 0.6317
283.14 K | 0.35 | – | 0.3722 | 0.3989 | 0.4259 | 0.4534 | 0.4798 | 0.5054 | 0.5325 | 0.5603
293.14 K | 0.3074 | – | 0.3281 | 0.3534 | 0.3789 | 0.4034 | 0.4271 | 0.452 | 0.4757 | 0.5014
303.14 K | 0.2708 | – | 0.2906 | 0.3141 | 0.3383 | 0.362 | 0.3838 | 0.4053 | 0.429 | 0.4513
313.14 K | 0.2385 | – | 0.2585 | 0.2817 | 0.3041 | 0.3268 | 0.3467 | 0.3678 | 0.3897 | 0.41
323.13 K | 0.21 | – | 0.2306 | 0.253 | 0.2742 | 0.295 | 0.3155 | 0.3353 | 0.3544 | 0.3744
333.13 K | 0.1844 | – | 0.2046 | 0.2274 | 0.2481 | 0.2683 | 0.2868 | 0.3059 | 0.3248 | 0.3434
343.13 K | – | 0.1669 | 0.1825 | 0.2044 | 0.2255 | 0.2447 | 0.2631 | 0.2805 | 0.2994 | 0.3154
353.13 K | – | 0.1456 | 0.1618 | 0.1858 | 0.2064 | 0.2239 | 0.2427 | 0.2591 | 0.2761 | 0.2925
363.14 K | – | 0.1248 | 0.1432 | 0.1663 | 0.1863 | 0.2051 | 0.2226 | 0.2395 | 0.2555 | 0.2713
373.14 K | – | 0.1074 | 0.1287 | 0.1531 | 0.1718 | 0.1886 | 0.2056 | 0.2222 | 0.2366 | 0.2495

FCC(F)(F)F [1,1,1,2-tetrafluoroethane]
viscosity [mPa·s]
Settings | 1000 kPa | 2000 kPa | 5000 kPa | 10000 kPa | 15000 kPa | 20000 kPa | 25000 kPa | 30000 kPa | 35000 kPa | 40000 kPa
258.15 K | 0.3251 | – | 0.3468 | 0.3675 | 0.3885 | 0.4094 | 0.4309 | 0.4502 | 0.4712 | 0.4996
278.14 K | 0.2536 | – | 0.2678 | 0.2859 | 0.3033 | 0.3209 | 0.3381 | 0.3543 | 0.3712 | 0.3885
298.14 K | 0.1962 | – | 0.2108 | 0.2273 | 0.2421 | 0.2567 | 0.2716 | 0.2876 | 0.3017 | 0.3169
318.13 K | – | 0.1549 | 0.1656 | 0.1828 | 0.197 | 0.2111 | 0.2254 | 0.2393 | 0.2511 | 0.2647
338.13 K | – | 0.1152 | 0.1288 | 0.1466 | 0.1618 | 0.1754 | 0.1893 | 0.2007 | – | –
